“Also recorded” adds a separate entry of the source.
Key:
[1] = cited from earlier work
[2] = system: BBB of the rat test subjects; assay: BBB permeability by Evans Blue concentration in brain after intranasal topical application to the SPG; type: in vivo
Text: Data are presented as mean±SEM. […] A P value of less than 0.05 was considered significant.

Male Sprague-Dawley rats [3] = assay: Mean arterial pressure after intranasal application to the SPG; type: in vivo, rat
Description: (§1) Male Sprague-Dawley rats (Harlan, Indianapolis, Ind.) weighing 300-350 g were allowed to acclimate for at least 4 days prior to experimentation. Rats were housed 2 per cage in a room with controlled light (6:00 a.m. to 6:00 p.m.), humidity (50±10%) and temperature (23±1° C.). Animal care and use for experimental procedures was approved by and in accordance with the guidelines of the Midwestern University Institutional Animal Care and Use Committee (IACUC).
(§2) All drugs/solutions were freshly prepared on the day of administration using sterile saline (0.9% NaCl, Hospira, Inc., Lake Forest, Ill.). Urethane (ethyl carbamate, Sigma-Aldrich, St. Louis, Mo.) was administered intraperitoneally (IP) at a dose of 1.5 g/kg. […] Evans blue (5 mL/kg) was administered intravenously (IV) via left femoral vein cannula.
(§3) Two studies were designed for this project, using a total of 42 rats.
(§4) Rats were anesthetized with urethane (1.5 g/kg, IP) and immobilized on a surgical board equipped with a controlled heating pad. Core temperature, measured via rectal probe, was maintained at 37±1° C. In order to maintain blood pO2, pCO2 and pH, and to avoid the effect of respiration on blood pressure (BP) and heart rate (HR), animals were kept on artificial respiration via an endotracheal cannula connected to a rodent ventilator (Model 683, Harvard Apparatus, Inc., Holliston, Mass.). […]

Male Sprague-Dawley rats [4] = assay: Heart rate after intranasal application to the SPG; type: in vivo, rat
Description: as §1, §2, §3, §4

Male Sprague-Dawley rats [5] = assay: Cerebral blood flow by Laser Speckle Contrast Analysis after intranasal application to the SPG; type: in vivo, rat; conditions: rivastigmine-treated (1 and 2 mg/kg) vs saline
Description: as §3
Animals anesthetized with urethane were secured into a stereotactic apparatus (David Kopf Instruments, Tujunga, Calif.) and a midline incision was made on their scalp. The skull was slowly thinned using a dremel, working in 30 second periods to minimize heat caused by friction. Cerebral blood flow was measured using Laser Speckle Contrast Analysis (LASCA) technology with a PeriCam PSI HR system (Perimed, Inc., Ardmore, Pa.), captured in real time and analyzed using PIMSoft software (Perimed).
GraphPad Instat 2.00 was used to conduct a power analysis. […] Data are presented as mean±SEM. The significance of differences for mean arterial pressure, heart rate and cerebral blood flow was estimated by 2-way analysis of variance followed by Tukey's post hoc test. One-way analysis of variance followed by Tukey's post hoc test was used to estimate significance for BBB permeability. A P value of less than 0.05 was considered significant. The statistical analysis was processed with GraphPad Prism 6.05 (GraphPad, San Diego, Calif.).

[6] = 1, 2 or 4 mg/kg to the SPG via intranasal cannula

In the case of `C/C=C1\[C@H]2C=C(C)C[C@]1(N)c1ccc(=O)[nH]c1C2` [huperzine], the solubility in water [1] is listed as “about 0.188 mg/mL”.
With `CCN(C)C(=O)Oc1cccc([C@H](C)N(C)C)c1` [rivastigmine] the “BBB permeability, in words” value ([2]; 1 mg/kg compared with saline, 2 and 4 mg/kg) was “significantly higher than saline; also recorded: greatest permeabilization”, the “BBB permeability, in words” value ([2]; Study I, 2 mg/kg rivastigmine compared with 0.4 mg/kg neostigmine) was “slightly increased permeability of the BBB over neostigmine” and the “BBB permeability, in words (Evans Blue dye in the CNS)” value ([2]; topical administration to the SPG, overall conclusion) was “increase in BBB permeability”. The mean arterial pressure (Male Sprague-Dawley rats [3]; [6]) was “did not significantly alter”, the heart rate (Male Sprague-Dawley rats [4]; [6]) was “did not significantly vary” and the cerebral blood flow (Male Sprague-Dawley rats [5]) was “No significant differences”. The solubility in water [1] was “about 2.04 mg/mL”.
For `COc1ccc2c3c1O[C@H]1C[C@@H](O)C=C[C@@]31CCN(C)C2` [galantamine], the solubility in water [1] is given as “about 10 mg/mL”.
In the case of `CN(C)C(=O)Oc1cccc([N+](C)(C)C)c1` [neostigmine], the mean arterial pressure (Male Sprague-Dawley rats [3]; 0.4 mg/kg, at 15 and 30 min postadministration) is reported as “slight decrease in mean arterial pressure” and the heart rate (Male Sprague-Dawley rats [4]; 0.4 mg/kg, over time) is reported as “slight decrease in heart rate”.
For `CNC(=O)Oc1ccc2c(c1)[C@]1(C)CCN(C)[C@@H]1N2C` [physostigmine], the solubility in water [1] is listed as “about 7.76 mg/mL”.
